Values after ≈ are worked out from the molar mass of the structure shown.
Columns and labels:
S. aureus ATCC 13709 = experiment: MIC, S. aureus ATCC 13709 (Alamar Blue broth microdilution); type: cell-based; conditions: Alamar Blue read after overnight incubation at 35° C.; for MIC: Staphylococcus aureus, ATCC13709, S. aureus; for MIC Sa: S. aureus
E. coli ATCC 25922 = experiment: MIC, E. coli ATCC 25922; type: cell-based; conditions: Alamar Blue read after overnight incubation at 35° C.; for MIC: Escherichia coli, ATCC25922, E. coli; for MIC Ec: E. coli

| Compound | MIC (S. aureus ATCC 13709) | MIC (E. coli ATCC 25922) | MIC Sa (S. aureus ATCC 13709) | MIC Ec (E. coli ATCC 25922) |
| --- | --- | --- | --- | --- |
| CNc1cc(F)cc2c1[nH]c1nc(Oc3cnc4cccnc4c3)nc(N3CC[C@]4(C[C@@H]4N)C3)c12 [4.040] | ≤ 0.5 µg/mL | ≤ 0.5 µg/mL | – | – |
| CNc1cc(F)cc2c1[nH]c1nc(Oc3cnc4cccnc4c3)nc(N3CC[C@@]4(C[C@H]4N)C3)c12 [4.041] | ≤ 0.5 µg/mL | 1 µg/mL (≈ 2.13 µM) | – | – |
| CNc1cc(F)cc2c1[nH]c1nc(Oc3cnc4cccnc4c3)nc(N3CC4(CC4N)C3)c12 (centres unmarked) [4.042] | – | – | ≤0.5 µg/mL | ≤0.5 µg/mL |
| CNc1cc(F)cc2c1[nH]c1nc(Oc3cnc4cccnc4c3)nc(N3CC4[C@H](C[C@H]4N)C3)c12 (some centres unmarked) [4.043] | ≤ 0.5 µg/mL | ≤ 0.5 µg/mL | – | – |
| CNc1cc(F)cc2c1[nH]c1nc(Oc3cnc4cccnc4c3)nc(N3CC4CCN[C@H]4C3)c12 (some centres unmarked) [4.044] | ≤ 0.5 µg/mL | ≤ 0.5 µg/mL | – | – |
| CNc1cc(F)cc2c1[nH]c1nc(Oc3cnc4cccnc4c3)nc(N3CC4C[C@@H](N)C[C@H]4C3)c12 (some centres unmarked) [4.046] | ≤ 0.5 µg/mL | 1 µg/mL (≈ 2.06 µM) | – | – |
| CNc1cc(F)cc2c1[nH]c1nc(Oc3cnc4cccnc4c3)nc(N3CC4CC[C@@H](N)[C@H]4C3)c12 (some centres unmarked) [4.047] | ≤ 0.5 µg/mL | ≤ 0.5 µg/mL | – | – |
| CNc1cc(F)cc2c1[nH]c1nc(Oc3cnc4cccnc4c3)nc(N3CC4NCCOC4C3)c12 (centres unmarked) [4.048] | – | – | ≤0.5 µg/mL | 1 µg/mL (≈ 2.06 µM) |
| CNc1cc(F)cc2c1[nH]c1nc(Oc3cncc(C#N)c3)nc(N3CC4C(N)C4C3)c12 (centres unmarked) [4.050] | ≤ 0.5 µg/mL | ≤ 0.5 µg/mL | – | – |
| CNc1cc(F)cc2c1[nH]c1nc(Oc3cncc(C#N)c3)nc(N3CC(N)C4(CC4)C3)c12 (centres unmarked) [4.051] | ≤ 0.5 µg/mL | 2 µg/mL (≈ 4.5 µM) | – | – |
| CNc1cc(F)cc2c1[nH]c1nc(Oc3cncc(C#N)c3)nc(N3CCC4(CC4N)C3)c12 (centres unmarked) [4.052] | ≤ 0.5 µg/mL | ≤ 0.5 µg/mL | – | – |
| CNc1cc(F)cc2c1[nH]c1nc(Oc3cncc(C#N)c3)nc(N3CC4CC(N)C4C3)c12 (centres unmarked) [4.053] | – | – | ≤0.5 µg/mL | ≤0.5 µg/mL |
| CNc1cc(F)cc2c1[nH]c1nc(Oc3cncc(C#N)c3)nc(N3CC4(CCC4N)C3)c12 (centres unmarked) [4.054] | – | – | ≤0.5 µg/mL | ≤0.5 µg/mL |
| CNc1cc(F)cc2c1[nH]c1nc(Oc3cncc(F)c3)nc(N3CC4C(N)C4C3)c12 (centres unmarked) [4.055] | ≤ 0.5 µg/mL | ≤ 0.5 µg/mL | – | – |
| CNc1cc(F)cc2c1[nH]c1nc(Oc3cncc(F)c3)nc(N3CC(N)C4(CC4)C3)c12 (centres unmarked) [4.056] | ≤ 0.5 µg/mL | ≤ 0.5 µg/mL | – | – |
| CNc1cc(F)cc2c1[nH]c1nc(Oc3cncc(F)c3)nc(N3CC4CNC(C4)C3)c12 (centres unmarked) [4.058] | ≤ 0.5 µg/mL | ≤ 0.5 µg/mL | – | – |
| CNc1cc(F)cc2c1[nH]c1nc(Oc3cncc(F)c3)nc(N3CC4CC(N)C4C3)c12 (centres unmarked) [4.060] | – | – | ≤0.5 µg/mL | ≤0.5 µg/mL |
| CNc1cc(F)cc2c1[nH]c1nc(Oc3cncc(F)c3)nc(N3CC4(CCC4N)C3)c12 (centres unmarked) [4.061] | – | – | ≤0.5 µg/mL | ≤0.5 µg/mL |
| CNc1cc(F)cc2c1[nH]c1nc(Oc3cncc(F)c3)nc(N3CCC4(C[C@H]4N)C3)c12 (some centres unmarked) [4.062] | ≤ 0.5 µg/mL | ≤ 0.5 µg/mL | – | – |
| CNc1cc(F)cc2c1[nH]c1nc(Oc3cncc(F)c3)nc(N3CC4CC(N)C3C4)c12 (centres unmarked) [4.063] | – | – | 1 µg/mL (≈ 2.29 µM) | 8 µg/mL (≈ 18.3 µM) |
| CNc1cc(F)cc2c1[nH]c1nc(Oc3cnc(C)nc3)nc(N3CC(N)C4(CC4)C3)c12 (centres unmarked) [4.065] | – | – | ≤0.5 µg/mL | ≤0.5 µg/mL |
| CNc1cc(F)cc2c1[nH]c1nc(Oc3cnc(C)nc3)nc(N3CC4CNC4C3)c12 (centres unmarked) [4.067] | ≤ 0.5 µg/mL | ≤ 0.5 µg/mL | – | – |
| CNc1cc(F)cc2c1[nH]c1nc(Oc3cnc(C)nc3)nc(N3CC(N)C4(CC4)C3)c12 (centres unmarked) [4.068] | – | – | ≤0.5 µg/mL | ≤0.5 µg/mL |

| Compound | MIC (S. aureus ATCC 13709) | MIC (E. coli ATCC 25922) | MIC Sa (S. aureus ATCC 13709) | MIC Ec (E. coli ATCC 25922) |
| --- | --- | --- | --- | --- |
| CNc1cc(F)cc2c1[nH]c1nc(Oc3cnc(C)nc3)nc(N3CC[C@@H](N)C3)c12 [4.070] | ≤ 0.5 µg/mL | 1 µg/mL (≈ 2.45 µM) | – | – |
| CNc1cc(F)cc2c1[nH]c1nc(Oc3cnc(C)nc3)nc(N3CCCC(N)CC3)c12 (centres unmarked) [4.071] | ≤ 0.5 µg/mL | 2 µg/mL (≈ 4.58 µM) | – | – |
| CNc1cc(F)cc2c1[nH]c1nc(Oc3cnc(C)nc3)nc(N3CC4CNC(C4)C3)c12 (centres unmarked) [4.072] | ≤ 0.5 µg/mL | 1 µg/mL (≈ 2.3 µM) | – | – |
| CNc1cc(F)cc2c1[nH]c1nc(Oc3cnc(C)nc3)nc(N3CC4CCC(N)C4C3)c12 (centres unmarked) [4.075] | – | – | ≤0.5 µg/mL | ≤0.5 µg/mL |
| CNc1cc(F)cc2c1[nH]c1nc(Oc3cnc(C)nc3)nc(N3CCCC(N)C3)c12 (centres unmarked) [4.077] | – | – | ≤0.5 µg/mL | ≤0.5 µg/mL |
| CNc1cc(F)cc2c1[nH]c1nc(Oc3cnc(C)nc3)nc(N3CC4C(C3)C4NC(=O)CN)c12 (centres unmarked) [4.078] | – | – | ≤0.5 µg/mL | 8 µg/mL (≈ 16.8 µM) |
| CNc1cc(F)cc2c1[nH]c1nc(Oc3cnc(C)nc3)nc(N3CC(C4(N)CC4)C3)c12 [4.080] | – | – | ≤0.5 µg/mL | 1 µg/mL (≈ 2.3 µM) |
| CNc1cc(F)cc2c1[nH]c1nc(Oc3cnc(C)nc3)nc(N3CCC4CNC4C3)c12 (centres unmarked) [4.081] | – | – | ≤0.5 µg/mL | 1 µg/mL (≈ 2.3 µM) |
| CNc1cc(F)cc2c1[nH]c1nc(Oc3cnc(C)nc3)nc(N3CC4CNCCC43)c12 (centres unmarked) [4.082] | – | – | 1 µg/mL (≈ 2.3 µM) | 8 µg/mL (≈ 18.4 µM) |
| CNc1cc(F)cc2c1[nH]c1nc(Oc3cnc(C)nc3)nc(N3CCC(C4(N)CC4)C3)c12 (centres unmarked) [4.083] | – | – | ≤0.5 µg/mL | ≤0.5 µg/mL |
| CNc1cc(F)cc2c1[nH]c1nc(Oc3cnc(C)nc3)nc(N3CC(NC(=O)CN)C4(CC4)C3)c12 (centres unmarked) [4.085] | – | – | ≤0.5 µg/mL | 2 µg/mL (≈ 4.07 µM) |
| CNc1cc(F)cc2c1[nH]c1nc(Oc3cnc(C)nc3)nc(N3CC4CCCC(N)C4C3)c12 (centres unmarked) [4.086] | – | – | ≤0.5 µg/mL | 2 µg/mL (≈ 4.32 µM) |
| CNc1cc(F)cc2c1[nH]c1nc(Oc3cnc(C)nc3)nc(N3CC(C)C(CN)C3)c12 (centres unmarked) [4.087] | – | – | ≤0.5 µg/mL | 1 µg/mL (≈ 2.29 µM) |
| CNc1cc(F)cc2c1[nH]c1nc(Oc3cnc(C)nc3)nc(N3CCCC(C)(N)C3)c12 (centres unmarked) [4.088] | – | – | ≤0.5 µg/mL | 1 µg/mL (≈ 2.29 µM) |
| CNc1cc(F)cc2c1[nH]c1nc(Oc3cnc(C)nc3)nc(N3CC(NCCO)C4(CC4)C3)c12 (centres unmarked) [4.089] | – | – | ≤0.5 µg/mL | ≤0.5 µg/mL |
| CNc1cc(F)cc2c1[nH]c1nc(Oc3cnc(C)nc3)nc(N3CC(NCCN)C4(CC4)C3)c12 (centres unmarked) [4.090] | – | – | ≤0.5 µg/mL | 4 µg/mL (≈ 8.38 µM) |
| CNc1cc(F)cc2c1[nH]c1nc(Oc3cnc(C)nc3)nc(N3C4CCC3CC(N)C4)c12 (centres unmarked) [4.091] | – | – | ≤0.5 µg/mL | 1 µg/mL (≈ 2.23 µM) |
| CNc1cc(F)cc2c1[nH]c1nc(Oc3cnc(C)nc3)nc(N3CC4CCC(N)CC4C3)c12 (centres unmarked) [4.092] | – | – | ≤0.5 µg/mL | 2 µg/mL (≈ 4.32 µM) |
| CNc1cc(F)cc2c1[nH]c1nc(Oc3cnc(C)nc3)nc(N3CC4CCC(N)CC4C3)c12 (centres unmarked) [4.093] | – | – | ≤0.5 µg/mL | 4 µg/mL (≈ 8.65 µM) |
| CNc1cc(F)cc2c1[nH]c1nc(Oc3cnc(C)nc3)nc(N3CC4CCNC4C3)c12 (centres unmarked) [4.094] | – | – | ≤0.5 µg/mL | ≤0.5 µg/mL |
| CNc1cc(F)cc2c1[nH]c1nc(Oc3cnc(C)nc3)nc(N3C4CCC3C(N)C4)c12 (centres unmarked) [4.095] | – | – | 2 µg/mL (≈ 4.6 µM) | 8 µg/mL (≈ 18.4 µM) |
| CNc1cc(F)cc2c1[nH]c1nc(Oc3cnc(C)nc3)nc(N3CC4(CC4N)C3)c12 (centres unmarked) [4.096] | – | – | ≤0.5 µg/mL | ≤0.5 µg/mL |
| CNc1cc(F)cc2c1[nH]c1nc(Oc3cnc(C)nc3)nc(N3CC4C(N)CC(C)(C)C4C3)c12 (centres unmarked) [4.097] | – | – | ≤0.5 µg/mL | 2 µg/mL (≈ 4.2 µM) |
